Results published in patent EP0194793A2, “9-Acyl tylosin derivatives” (Omura, Satoshi, priority 1985, dated 1986).
Converted amounts (≈) assume the structure as drawn. Read-outs that look alike come from different tables or passages of the source.

Experiments:
[1] = tested on: Bacillus subtilis KB-143(IFO 3001); assay: Minimum inhibitory concentration, nutrient agar dilution; type: cell-based
Protocol: (§1) Experiment 1: Minimum Inhibitory Concentration (µg/ml)
(§2) The tylosin derivatives obtained in Examples 1 through 9 were tested for their minimum inhibitory concentrations against gram-positive and gram-negative bacteria. The tests were conducted in conventional manner by inoculating varying concentrations of the test sample on a nutrient agar test medium and incubating at 37°C for 18-20 hours. The concentrations of the test samples inhibiting the bacteria growth were measured in µg per ml as a minimum inhibitory concentration.

[2] = tested on: Escherichia coli KB213 (NIHJ); assay: as above; type: cell-based; conditions: 37°C, 18-20 hours; for MIC: read-out: Minimum Inhibitory Concentrations
Protocol: as §1, §2

[3] = tested on: Klebsiella pneumoniae KB13(PCI 602); assay: as above; type: cell-based; conditions: for MIC: read-out: Minimum Inhibitory Concentrations
Protocol: as §1, §2

[4] = tested on: Micrococcus luteus KB212 (ATCC 9341); assay: as above; type: cell-based
Protocol: as §1, §2

[5] = tested on: Staphylococcus aureus KB-210 (ATC 65380); assay: as above; type: cell-based; conditions: for MIC: read-out: Minimum Inhibitory Concentrations
Protocol: as §1, §2

[6] = tested on: S. pyrogenes C203; assay: In vivo activity in infected mice
Protocol: Experiment 2: In vivo Activity
The compounds obtained in Examples 2 and 4 were separately administered subcutaneously or orally to mice infected with S. pyrogenes C203. The in vivo activity was measured as ED50 (mg/kg x 2).

[7] = Bacillus subtilis KB-143(IFO 3001), nutrient agar, 37°C, 18-20 hours
[8] = Klebsiella pneumoniae KB13(PCI 602), nutrient agar, 37°C, 18-20 hours
[9] = Micrococcus luteus KB212 (ATCC 9341), nutrient agar, 37°C, 18-20 hours
[10] = Staphylococcus aureus KB-210 (ATC 65380), nutrient agar, 37°C, 18-20 hours

| Molecule | Minimum Inhibitory Concentrations [1, 7] [µg/mL] | Minimum Inhibitory Concentrations [2] [µg/mL] | Minimum Inhibitory Concentrations [3, 8] [µg/mL] | Minimum Inhibitory Concentrations [4, 9] [µg/mL] | Minimum Inhibitory Concentrations [5, 10] [µg/mL] | other results |
| --- | --- | --- | --- | --- | --- | --- |
| 9-0-Butyryl-9-dihydrotylosin [Example 3] | 0.4 | 100 | 100 | <0.1 | 1.56 |  |
| 9-0-Benzoyl-9-dihydrodemycarosyltylosin [Example 8] | 1.56 | >100 | >100 | 0.2 | 1.56 |  |
| 9-0-Propionyl-9-dihydrodemycarosyltylosin [Example 6] | 1.56 | >100 | >100 | 0.2 | 1.56 |  |
| 9-0-Butyryl-9-dihydrodemycarosyltylosin [Example 7] | 1.56 | >50 | >50 | 0.2 | 1.56 |  |
| 9-0-Propionyl-9-dihydrotylosin [Example 2] | 0.2 | >100 | >100 | <0.1 | 0.78 | ED50 ([6]; Oral, mice infected with S. pyrogenes C203): 12.5 mg/kg x 2; ED50 ([6]; Subcutaneous, mice infected with S. pyrogenes C203): 2.5 mg/kg x 2 |
| CC[C@H]1OC(=O)C[C@@H](O)[C@H](C)[C@@H](O[C@@H]2O[C@H](C)[C@@H](O[C@H]3C[C@@](C)(O)[C@@H](O)[C@H](C)O3)[C@H](N(C)C)[C@H]2O)[C@@H](CC=O)C[C@@H](C)C(=O)/C=C/C(C)=C/[C@@H]1CO[C@@H]1O[C@H](C)[C@@H](O)[C@@H](OC)[C@H]1OC [Tyl, Tylosin] |  |  |  |  |  | MIC ([1]; Bacillus subtilis, IFO3001, read-out: Minimum Inhibitory Concentrations): 0.78 µg/mL (≈ 0.851 µM); MIC [2]: > 100 µg/mL; MIC ([3]; Klebsiella pneumoniae): > 100 µg/mL; MIC ([4]; Micrococcus luteus, ATCC9341, read-out: Minimum Inhibitory Concentrations): 0.2 µg/mL (≈ 0.218 µM); MIC ([5]; Staphylococcus aureus): 1.56 µg/mL (≈ 1.7 µM); ED50 ([6]; Mus musculus, po): 50 mg/kg; ED50 ([6]; Mus musculus, sc): 1 mg/kg |
| CCC1OC(=O)CC(O)C(C)C(OC2OC(C)C(O)C(N(C)C)C2O)C(CC=O)CC(C)C(=O)C=CC(C)=CC1COC1OC(C)C(O)C(OC)C1OC (stereo not drawn) [Detyl, Demycarosyltylosin, reference compound] |  |  |  |  |  | MIC ([1]; IFO3001, Bacillus subtilis KB-143(IFO 3001), nutrient agar, 37°C, 18-20 hours, read-out: Minimum Inhibitory Concentrations): 3.12 µg/mL (≈ 4.04 µM); MIC [2]: > 100 µg/mL; MIC [3, 8]: 100 µg/mL (≈ 130 µM); MIC ([4]; ATCC9341, Micrococcus luteus KB212 (ATCC 9341), nutrient agar, 37°C, 18-20 hours, read-out: Minimum Inhibitory Concentrations): 0.2 µg/mL (≈ 0.259 µM); MIC [5, 10]: 3.12 µg/mL (≈ 4.04 µM) |
| 9-0-Acetyl-9-dihydrotylosin [Example 1] | 0.2 | >100 | 100 | <0.1 | 1.56 |  |
| 9-0-Benzoyl-9-dihydrotylosin [Example 4] | 0.2 | >100 | >100 | <0.1 | 0.78 |  |
| 9-0-Acetyl-9-dihydrodemycarosyltylosin [Example 5] | 1.56 | >50 | >50 | 0.2 | 1.56 |  |
